Key:
Format in all cases: in vivo
[1] = test system: oriental tea tortix (Homona magnanima); test: Insecticidal test against oriental tea tortix, Comparative Example 2 (Test Example 24, Table 18); details: cabbage leaf dip, third instar larva, after 6 days
Experimental: (§1) A 10% emulsifiable concentrate of the compound of the present invention or comparative compound was diluted with water containing a spreading agent to prepare a chemical solution with a prescribed concentration. To the chemical solution was dipped leaves of cabbage for about 10 seconds, and after air-drying, they were placed in a laboratory dish, then 7-oriental tea tortix (Homona magnanima) in the stage of third instar larva per the dish were released therein, and the dish was covered with a perforated lid and contained at a thermostat chamber at 25° C. A number of dead insect(s) after 6 days was counted and a rate of dead insects was calculated by the following calculation equation. In the meantime, the test was carried out with two areas. Rate of dead insects (%)=(Number of dead insects/Number of released insects)×100 The rate of dead insects in each prescribed concentration of the compounds tested is shown in Table 18.

[2] = test system: corn earworm (Helicoverpa armigera); test: Insecticidal test against corn earworm, Comparative Example 1 (Test Example 23, Table 17); details: cabbage leaf dip, third instar larva, after 6 days
Experimental: as §1, with “then 7-corn earworm (Helicoverpa armigera)” for “then 7-oriental tea tortix (Homona magnanima)”, “C. Artificial feed (1 cm^3) was added after 2 days of treatment, and a” for “C. A”, “Table 17.” for “Table 18.”

[3] = test system: common cutworm (Spodoptera litura); test: Insecticidal test against common cutworm (Test Example 2); details: in Brassica oleracea, foliar, 144 h, read-out: insecticidal rate (rate of dead insects)
Experimental: A 10% emulsifiable concentrate (depending on the compounds, 10% wettable powder was applied for the test) of the compound of the present invention was diluted with water […] To the chemical solution was dipped leaves of cabbage for about 10 seconds, and after air-drying, they were placed in a laboratory dish, then 5-common cutworm (Spodoptera litura) in the stage of second instar larva per the dish were released therein, and the dish was covered with a lid and contained at a thermostat chamber at 25° C. […] Incidentally, the test was carried out with two districts.

[4] = test system: cabbage moth (Plutella xylostella); test: Insecticidal test against cabbage moth (Test Example 1); details: foliar, 144 h, read-out: insecticidal rate (rate of dead insects)
[5] = test system: American dog tick (Dermacentor variabilis); test: Insecticidal test against American dog tick (Test Example 20); details: 96 h, thin film in laboratory dish, 0.1 μg/cm^2 (*), protonymph, after 4 days, read-out: insecticidal rate (rate of dead insects)
Experimental: After 400 μl of acetone solution in which 4 mg of the compound of the present invention was dissolved in 40 ml of acetone (concentration 100 ppm) was coated on the bottom face and side face of two laboratory dishes having an inner diameter of 5.3 cm, acetone was vaporized to prepare a thin film of the compound of the present invention on the inner wall of the laboratory dish. As the surface area of the inner wall is 40 cm^2, the treated dosage is […]. […] A number of dead insect(s) after 4 days was counted and a rate of dead insects was calculated by the calculation equation similar to that in Test Example 1. Incidentally, the test was carried out with one district.

## Cc1cc(C2=NOC(C(F)(F)F)C2c2cc(Cl)cc(Cl)c2)ccc1C(=O)Nc1ncccn1 (stereo not shown) [Comparative Compound B, reference compound]
[1]; 0.1 ppm
  Rate of dead insects: 0%
[1]; 0.3 ppm
  Rate of dead insects: 0%
[1]; 1 ppm
  Rate of dead insects: 7.1%
[1]; 3 ppm
  Rate of dead insects: 64.3%
[1]; 10 ppm
  Rate of dead insects: 100%

## COC(=O)N(CC(F)(F)F)C(=O)c1ccc(C2=NOC(C(F)(F)F)C2c2cc(Cl)cc(Cl)c2)cc1C (stereo not shown) [Comparative Compound A, reference compound]
[2]; 1 ppm
  Rate of dead insects: 0%
[2]; 3 ppm
  Rate of dead insects: 0%
[2]; 10 ppm
  Rate of dead insects: 28.6%
[2]; 33 ppm
  Rate of dead insects: 92.9%

## Cc1cc(C2=NOC(c3cc(Cl)cc(Cl)c3)(C(F)(F)F)C2)ccc1C(=O)N(C(=O)C(C)C)c1ncc(Br)cn1 (stereo not shown) [5-122, N-(5-Bromo-2-pyrimidinyl)-4-[5-(3,5-dichlorophenyl)-5-trifluoromethyl-4,5-dihydroisoxazole-3-yl]-N-isobutyryl-2-methyl benzoic acid amide]
[3]
  pest or weed control at 10 ppm: ≥ 80%
[4]
  pest or weed control at 10 ppm: ≥ 80%
[5]
  pest or weed control at 0.1 µg/cm2: ≥ 80%

## COC(=O)NC(=O)c1ccc(C2=NOC(c3cc(Cl)cc(Cl)c3)(C(F)(F)F)C2)cc1C (stereo not shown) [2-003, Methyl N-[4-[5-(3,5-dichlorophenyl)-5-trifluoromethyl-4,5-dihydroisoxazole-3-yl]-2-methylbenzoyl]carbamate]
[3]
  pest or weed control at 100 ppm: ≥ 80%
[4]
  pest or weed control at 100 ppm: ≥ 80%
[5]
  pest or weed control at 0.1 µg/cm2: ≥ 80%

## COCC(=O)N(C(=O)c1ccc(C2=NOC(c3cc(Cl)cc(Cl)c3)(C(F)(F)F)C2)cc1C)c1ncc(Cl)cn1 (stereo not shown) [5-106, N-(5-Chloro-2-pyrimidinyl)-4-[5-(3,5-dichlorophenyl)-5-trifluoromethyl-4,5-dihydro-isoxazole-3-yl]-N-methoxyacetyl-2-methyl benzoic acid amide]
[3]
  pest or weed control at 10 ppm: ≥ 80%
[4]
  pest or weed control at 10 ppm: ≥ 80%
[5]
  pest or weed control at 0.1 µg/cm2: ≥ 80%

## CCON=CNC(=O)c1ccc(C2=NOC(c3cc(Cl)cc(Cl)c3)(C(F)(F)F)C2)cc1C (stereo not shown) [6-005, 4-[5-(3,5-Dichlorophenyl)-5-trifluoromethyl-4,5-dihydroisoxazole-3-yl]-N-(ethoxyimino-methyl)-2-methyl benzoic acid amide]
[3]
  pest or weed control at 10 ppm: ≥ 80%
[4]
  pest or weed control at 10 ppm: ≥ 80%
[5]
  pest or weed control at 0.1 µg/cm2: ≥ 80%

## COC(=O)N(COC(C)=O)C(=O)c1ccc(C2=NOC(c3cc(Cl)cc(Cl)c3)(C(F)(F)F)C2)cc1C (stereo not shown) [3-033]
[2]; 1 ppm
  Rate of dead insects: 7.1%
[2]; 3 ppm
  Rate of dead insects: 50.0%
[2]; 10 ppm
  Rate of dead insects: 100%
[2]; 33 ppm
  Rate of dead insects: 100%

## CCN(C(=O)c1ccc(C2=NOC(c3cc(Cl)cc(Cl)c3)(C(F)(F)F)C2)cc1C)c1ccccc1 (stereo not shown) [5-002, 4-[5-(3,5-Dichlorophenyl)-5-trifluoromethyl-4,5-dihydroisoxazole-3-yl]-N-ethyl-2-methyl benzoic acid anilide]
[3]
  pest or weed control at 100 ppm: ≥ 80%
[4]
  pest or weed control at 100 ppm: ≥ 80%
[5]
  pest or weed control at 0.1 µg/cm2: ≥ 80%

## CON=CN(C)C(=O)c1ccc(C2=NOC(c3cc(Cl)cc(Cl)c3)(C(F)(F)F)C2)cc1C (stereo not shown) [7-003, 4-[5-(3,5-Dichlorophenyl)-5-trifluoromethyl-4,5-dihydroisoxazole-3-yl]-N-(methoxyiminomethyl)-N-methyl-2-methylbenzoic acid amide]
[5]
  pest or weed control at 0.1 µg/cm2: ≥ 80%

## CC(=O)N(C(=O)c1ccc(C2=NOC(c3cc(Cl)cc(Cl)c3)(C(F)(F)F)C2)cc1C)c1cncnc1 (stereo not shown) [5-165]
[1]; 0.1 ppm
  Rate of dead insects: 14.3%
[1]; 0.3 ppm
  Rate of dead insects: 57.1%
[1]; 1 ppm
  Rate of dead insects: 92.9%
[1]; 3 ppm
  Rate of dead insects: 100%
[1]; 10 ppm
  Rate of dead insects: 100%

## CO/N=C\NC(=O)c1ccc(C2=NOC(c3cc(Cl)cc(Cl)c3)(C(F)(F)F)C2)cc1C (stereo not shown) [6-004, (Z)-4-[5-(3,5-Dichlorophenyl)-5-trifluoromethyl-4,5-dihydro-isoxazole-3-yl]-N-(methoxyiminomethyl)-2-methylbenzoic acid amide]
[3]
  pest or weed control at 10 ppm: ≥ 80%
[4]
  pest or weed control at 10 ppm: ≥ 80%
[5]
  pest or weed control at 0.1 µg/cm2: ≥ 80%

## CC(=O)N(C(=O)c1ccc(C2=NOC(c3cc(Cl)cc(Cl)c3)(C(F)(F)F)C2)cc1C)c1ncc(Cl)cn1 (stereo not shown) [5-100, N-Acetyl-N-(5-chloro-2-pyrimidinyl)-4-[5-(3,5-dichlorophenyl)-5-trifluoromethyl-4,5-dihydroisoxazole-3-yl]-2-methyl benzoic acid amide]
[3]
  pest or weed control at 100 ppm: ≥ 80%
[4]
  pest or weed control at 100 ppm: ≥ 80%
[5]
  pest or weed control at 0.1 µg/cm2: ≥ 80%
